What was measured:
Type in all cases: in vivo
[1] = system: large (Lg) crabgrass (Digitaria sanguinalis); assay: Test E pre-/postemergence greenhouse test, plant response rating 0-100; settings: Preemergence, scale 0 to 100
[2] = system: green foxtail (Setaria viridis); assay: as above; settings: Preemergence, scale 0 to 100
[3] = system: morningglory (Ipomoea coccinea); assay: as above; settings: Preemergence, scale 0 to 100
[4] = system: waterhemp_RES1, (ALS & Triazine resistant common waterhemp, Amaranthus rudis); assay: Test E postemergence greenhouse test, plant response rating 0-100; settings: scale 0 to 100
How it was run: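 Visual ratings, 0 (no effect) to 100 (complete control), made versus controls 14–21 days after postemergence application in the greenhouse. Plants were at 1- to 4-leaf stage (2–18 cm) in peat moss/vermiculite potting medium.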

[5] = system: johnsongrass (Sorghum halepense); assay: Test E pre-/postemergence greenhouse test, plant response rating 0-100; settings: Preemergence, scale 0 to 100
[6] = system: barnyardgrass (Echinochloa crus-galli); assay: as above; settings: scale 0 to 100; for Plant response rating, Barnyardgrass: Postemergence; for Barnyardgrass plant response rating: Preemergence
How it was run: (§1)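 Rated visually against controls 14-21 days after treatment on a 0-100 scale (100 = complete control). Pre- and postemergence sprays used a non-phytotoxic solvent mixture with surfactant. Preemergence seeds were in silt loam; postemergence plants were in peat-based medium at the 1- to 4-leaf stage (2-18 cm).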

[7] = system: lambsquarters (Chenopodium album); assay: as above; settings: Preemergence, scale 0 to 100
How it was run: as §1

[8] = system: surinam grass (Brachiaria decumbens); assay: as above; settings: Preemergence, scale 0 to 100
How it was run: as §1

[9] = system: velvetleaf (Abutilon theophrasti); assay: as above; settings: Preemergence, scale 0 to 100
How it was run: as §1

[10] = system: ragweed (common ragweed, Ambrosia elatior); assay: as above; settings: Preemergence, scale 0 to 100
How it was run: as §1

[11] = system: Italian ryegrass (Lolium multiflorum); assay: as above; settings: scale 0 to 100; for Plant response rating, Ryegrass, Italian: Postemergence; for Ryegrass, Italian plant response rating: Preemergence
How it was run: as §1

[12] = system: kochia (Kochia scoparia); assay: as above; settings: Preemergence, scale 0 to 100
How it was run: as §1

[13] = system: yellow nutsedge (Cyperus esculentus); assay: as above; settings: Preemergence, scale 0 to 100
[14] = system: giant foxtail (Setaria faberii); assay: as above; settings: Preemergence, scale 0 to 100
[15] = system: goosegrass (Eleusine indica); assay: as above; settings: Preemergence, scale 0 to 100

For `O=Cn1cc(C(=O)c2ccccc2)c(-c2cc(Cl)cc(Cl)c2)n1` [Compound 28], the “Crabgrass, Large plant response rating” value ([1]; 31 g ai/ha) was 0, the “Crabgrass, Large plant response rating” value ([1]; 62 g ai/ha) was 0 and the “Crabgrass, Large plant response rating” value ([1]; 125 g ai/ha) was 0. For the same compound, the “Crabgrass, Large plant response rating” value ([1]; 250 g ai/ha) was 0, the “Crabgrass, Large plant response rating” value ([1]; 500 g ai/ha) was 0 and the “Foxtail, Green plant response rating” value ([2]; 31 g ai/ha) was 0. The “Foxtail, Green plant response rating” value ([2]; 62 g ai/ha) was 0, the “Foxtail, Green plant response rating” value ([2]; 125 g ai/ha) was 0 and the “Foxtail, Green plant response rating” value ([2]; 250 g ai/ha) was 0. For the same compound, the “Foxtail, Green plant response rating” value ([2]; 500 g ai/ha) was 0, the “Morningglory plant response rating” value ([3]; 31 g ai/ha) was 0 and the “Morningglory plant response rating” value ([3]; 62 g ai/ha) was 0. The “Morningglory plant response rating” value ([3]; 125 g ai/ha) was 0, the “Morningglory plant response rating” value ([3]; 250 g ai/ha) was 0 and the “Morningglory plant response rating” value ([3]; 500 g ai/ha) was 0. The “Plant response rating, Waterhemp_RES1” value ([4]; 31 g ai/ha) was 85, the “Plant response rating, Waterhemp_RES1” value ([4]; 62 g ai/ha) was 85 and the “Plant response rating, Waterhemp_RES1” value ([4]; 125 g ai/ha) was 90. The “Plant response rating, Waterhemp_RES1” value ([4]; 250 g ai/ha) was 95, the “Plant response rating, Waterhemp_RES1” value ([4]; 500 g ai/ha) was 90 and the “Johnsongrass plant response rating” value ([5]; 31 g ai/ha) was 0. For the same compound, the “Johnsongrass plant response rating” value ([5]; 62 g ai/ha) was 0, the “Johnsongrass plant response rating” value ([5]; 125 g ai/ha) was 0 and the “Johnsongrass plant response rating” value ([5]; 250 g ai/ha) was 0. The “Johnsongrass plant response rating” value ([5]; 500 g ai/ha) was 0, the “Plant response rating, Barnyardgrass” value ([6]; 31 g ai/ha) was 0 and the “Plant response rating, Barnyardgrass” value ([6]; 62 g ai/ha) was 0. The “Plant response rating, Barnyardgrass” value ([6]; 125 g ai/ha) was 0, the “Plant response rating, Barnyardgrass” value ([6]; 250 g ai/ha) was 0 and the “Plant response rating, Barnyardgrass” value ([6]; 500 g ai/ha) was 0. The “Barnyardgrass plant response rating” value ([6]; 31 g ai/ha) was 0, the “Barnyardgrass plant response rating” value ([6]; 62 g ai/ha) was 0 and the “Barnyardgrass plant response rating” value ([6]; 125 g ai/ha) was 0. For the same compound, the “Barnyardgrass plant response rating” value ([6]; 250 g ai/ha) was 0, the “Barnyardgrass plant response rating” value ([6]; 500 g ai/ha) was 0 and the “Lambsquarters plant response rating” value ([7]; 31 g ai/ha) was 0. The “Lambsquarters plant response rating” value ([7]; 62 g ai/ha) was 95, the “Lambsquarters plant response rating” value ([7]; 125 g ai/ha) was 100 and the “Lambsquarters plant response rating” value ([7]; 250 g ai/ha) was 100. For the same compound, the “Lambsquarters plant response rating” value ([7]; 500 g ai/ha) was 100, the “Surinam Grass plant response rating” value ([8]; 31 g ai/ha) was 0 and the “Surinam Grass plant response rating” value ([8]; 62 g ai/ha) was 0. The “Surinam Grass plant response rating” value ([8]; 125 g ai/ha) was 0, the “Surinam Grass plant response rating” value ([8]; 250 g ai/ha) was 0 and the “Surinam Grass plant response rating” value ([8]; 500 g ai/ha) was 0. For the same compound, the “Velvetleaf plant response rating” value ([9]; 31 g ai/ha) was 0, the “Velvetleaf plant response rating” value ([9]; 62 g ai/ha) was 0 and the “Velvetleaf plant response rating” value ([9]; 125 g ai/ha) was 0. The “Velvetleaf plant response rating” value ([9]; 250 g ai/ha) was 40, the “Velvetleaf plant response rating” value ([9]; 500 g ai/ha) was 100 and the “Ragweed plant response rating” value ([10]; 31 g ai/ha) was 0. For the same compound, the “Ragweed plant response rating” value ([10]; 62 g ai/ha) was 0, the “Ragweed plant response rating” value ([10]; 125 g ai/ha) was 30 and the “Ragweed plant response rating” value ([10]; 250 g ai/ha) was 65. The “Ragweed plant response rating” value ([10]; 500 g ai/ha) was 70, the “Plant response rating, Ryegrass, Italian” value ([11]; 31 g ai/ha) was 0 and the “Plant response rating, Ryegrass, Italian” value ([11]; 62 g ai/ha) was 0. The “Plant response rating, Ryegrass, Italian” value ([11]; 125 g ai/ha) was 0, the “Plant response rating, Ryegrass, Italian” value ([11]; 250 g ai/ha) was 0 and the “Plant response rating, Ryegrass, Italian” value ([11]; 500 g ai/ha) was 0. For the same compound, the “Ryegrass, Italian plant response rating” value ([11]; 31 g ai/ha) was 0, the “Ryegrass, Italian plant response rating” value ([11]; 62 g ai/ha) was 0 and the “Ryegrass, Italian plant response rating” value ([11]; 125 g ai/ha) was 0. The “Ryegrass, Italian plant response rating” value ([11]; 250 g ai/ha) was 10, the “Ryegrass, Italian plant response rating” value ([11]; 500 g ai/ha) was 20 and the “Kochia plant response rating” value ([12]; 31 g ai/ha) was 15. The “Kochia plant response rating” value ([12]; 62 g ai/ha) was 20, the “Kochia plant response rating” value ([12]; 125 g ai/ha) was 40 and the “Kochia plant response rating” value ([12]; 250 g ai/ha) was 40. For the same compound, the “Kochia plant response rating” value ([12]; 500 g ai/ha) was 85, the “Nutsedge, Yellow plant response rating” value ([13]; 31 g ai/ha) was 0 and the “Nutsedge, Yellow plant response rating” value ([13]; 62 g ai/ha) was 0. For the same compound, the “Nutsedge, Yellow plant response rating” value ([13]; 125 g ai/ha) was 0, the “Nutsedge, Yellow plant response rating” value ([13]; 250 g ai/ha) was 0 and the “Nutsedge, Yellow plant response rating” value ([13]; 500 g ai/ha) was 0. The “Foxtail, Giant plant response rating” value ([14]; 31 g ai/ha) was 0, the “Foxtail, Giant plant response rating” value ([14]; 62 g ai/ha) was 0 and the “Foxtail, Giant plant response rating” value ([14]; 125 g ai/ha) was 20. For the same compound, the “Foxtail, Giant plant response rating” value ([14]; 250 g ai/ha) was 0, the “Foxtail, Giant plant response rating” value ([14]; 500 g ai/ha) was 0 and the “Goosegrass plant response rating” value ([15]; 31 g ai/ha) was 0. The “Goosegrass plant response rating” value ([15]; 62 g ai/ha) was 0, the “Goosegrass plant response rating” value ([15]; 125 g ai/ha) was 0 and the “Goosegrass plant response rating” value ([15]; 250 g ai/ha) was 0. The “Goosegrass plant response rating” value ([15]; 500 g ai/ha) was 0.
In the case of `CCn1cc(C(=O)c2ccccc2)c(-c2cc(Cl)cc(Cl)c2)n1` [Compound 31, [3-(3,5-dichlorophenyl)-1-ethyl-1H-pyrazol-4-yl]phenylmethanone], the “Crabgrass, Large plant response rating” value ([1]; 62 g ai/ha) was 0, the “Crabgrass, Large plant response rating” value ([1]; 125 g ai/ha) was 0 and the “Crabgrass, Large plant response rating” value ([1]; 250 g ai/ha) was 0. The “Crabgrass, Large plant response rating” value ([1]; 500 g ai/ha) was 0, the “Foxtail, Green plant response rating” value ([2]; 62 g ai/ha) was 0 and the “Foxtail, Green plant response rating” value ([2]; 125 g ai/ha) was 0. The “Foxtail, Green plant response rating” value ([2]; 250 g ai/ha) was 0, the “Foxtail, Green plant response rating” value ([2]; 500 g ai/ha) was 0 and the “Morningglory plant response rating” value ([3]; 62 g ai/ha) was 0. For the same compound, the “Morningglory plant response rating” value ([3]; 125 g ai/ha) was 0, the “Morningglory plant response rating” value ([3]; 250 g ai/ha) was 0 and the “Morningglory plant response rating” value ([3]; 500 g ai/ha) was 0. For the same compound, the “Johnsongrass plant response rating” value ([5]; 62 g ai/ha) was 0, the “Johnsongrass plant response rating” value ([5]; 125 g ai/ha) was 0 and the “Johnsongrass plant response rating” value ([5]; 250 g ai/ha) was 0. For the same compound, the “Johnsongrass plant response rating” value ([5]; 500 g ai/ha) was 0, the “Barnyardgrass plant response rating” value ([6]; 62 g ai/ha) was 0 and the “Barnyardgrass plant response rating” value ([6]; 125 g ai/ha) was 0. For the same compound, the “Barnyardgrass plant response rating” value ([6]; 250 g ai/ha) was 0, the “Barnyardgrass plant response rating” value ([6]; 500 g ai/ha) was 0 and the “Lambsquarters plant response rating” value ([7]; 62 g ai/ha) was 0. The “Lambsquarters plant response rating” value ([7]; 125 g ai/ha) was 100, the “Lambsquarters plant response rating” value ([7]; 250 g ai/ha) was 100 and the “Lambsquarters plant response rating” value ([7]; 500 g ai/ha) was 100. The “Surinam Grass plant response rating” value ([8]; 62 g ai/ha) was 0, the “Surinam Grass plant response rating” value ([8]; 125 g ai/ha) was 0 and the “Surinam Grass plant response rating” value ([8]; 250 g ai/ha) was 0. For the same compound, the “Surinam Grass plant response rating” value ([8]; 500 g ai/ha) was 0, the “Velvetleaf plant response rating” value ([9]; 62 g ai/ha) was 65 and the “Velvetleaf plant response rating” value ([9]; 125 g ai/ha) was 50. For the same compound, the “Velvetleaf plant response rating” value ([9]; 250 g ai/ha) was 80, the “Velvetleaf plant response rating” value ([9]; 500 g ai/ha) was 80 and the “Ragweed plant response rating” value ([10]; 62 g ai/ha) was 0. The “Ragweed plant response rating” value ([10]; 125 g ai/ha) was 35, the “Ragweed plant response rating” value ([10]; 250 g ai/ha) was 50 and the “Ragweed plant response rating” value ([10]; 500 g ai/ha) was 80. For the same compound, the “Ryegrass, Italian plant response rating” value ([11]; 62 g ai/ha) was 0, the “Ryegrass, Italian plant response rating” value ([11]; 125 g ai/ha) was 0 and the “Ryegrass, Italian plant response rating” value ([11]; 250 g ai/ha) was 0. For the same compound, the “Ryegrass, Italian plant response rating” value ([11]; 500 g ai/ha) was 0, the “Kochia plant response rating” value ([12]; 62 g ai/ha) was 35 and the “Kochia plant response rating” value ([12]; 125 g ai/ha) was 25. For the same compound, the “Kochia plant response rating” value ([12]; 250 g ai/ha) was 50, the “Kochia plant response rating” value ([12]; 500 g ai/ha) was 70 and the “Nutsedge, Yellow plant response rating” value ([13]; 62 g ai/ha) was 0. For the same compound, the “Nutsedge, Yellow plant response rating” value ([13]; 125 g ai/ha) was 0, the “Nutsedge, Yellow plant response rating” value ([13]; 250 g ai/ha) was 0 and the “Nutsedge, Yellow plant response rating” value ([13]; 500 g ai/ha) was 0. The “Foxtail, Giant plant response rating” value ([14]; 62 g ai/ha) was 0, the “Foxtail, Giant plant response rating” value ([14]; 125 g ai/ha) was 0 and the “Foxtail, Giant plant response rating” value ([14]; 250 g ai/ha) was 0. For the same compound, the “Foxtail, Giant plant response rating” value ([14]; 500 g ai/ha) was 0, the “Goosegrass plant response rating” value ([15]; 62 g ai/ha) was 0 and the “Goosegrass plant response rating” value ([15]; 125 g ai/ha) was 0. For the same compound, the “Goosegrass plant response rating” value ([15]; 250 g ai/ha) was 0 and the “Goosegrass plant response rating” value ([15]; 500 g ai/ha) was 0.

— US10167262B2, “Herbicidal substituted 3-arylpyrazoles” (FMC CORPORATION, priority 2014, dated 2019)
